Assay results published in PubChem BioAssay AID1552 (Sanford-Burnham Center for Chemical Genomics, 2009).
Active and inactive are the calls of the source. The rule behind the calls is not given here.

The compounds below were run against Ubiquitin-conjugating enzyme E2 N (Homo sapiens) (UniProt P61088) (assay: UBE2N binders by NMR, biophysical, purified protein (AID 1552)). Details: NMR binding to purified UBE2N.
Chain of Ubiquitin-conjugating enzyme E2 N (Homo sapiens) (P61088 whole entry, looked up): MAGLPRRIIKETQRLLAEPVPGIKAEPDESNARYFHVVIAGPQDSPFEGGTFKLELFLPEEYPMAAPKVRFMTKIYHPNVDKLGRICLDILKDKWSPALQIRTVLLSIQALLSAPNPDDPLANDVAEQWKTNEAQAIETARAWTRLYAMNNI
With `O=C(O)CCSc1nc2ccccc2s1` the Kd was > 4 mM (inactive). In the case of `CCOC(=O)c1csc(N)n1`, the Kd is reported as > 4 mM (inactive). In the case of `CSc1ccccc1NC(=O)c1ccc(C)o1`, the Kd is reported as > 4 mM (inactive). With `CC(=O)OC1CCC2(C)C(=CC=C3C2CCC2(C)C3CCC2C(C)/C=C/C(C)C(C)C)C1(C)C` (stereo unspecified) the Kd was > 4 mM (inactive). For `CC1CCCN(C/C(O)=C(\C#N)c2nc3ccccc3[nH]2)C1` (stereo unspecified), the Kd was > 4 mM (inactive). In the case of `CCOC(=O)c1c(C)cc(O)c(C)c1O`, the Kd is reported as > 4 mM (inactive). For `O=[N+]([O-])c1cccc(-c2nnco2)c1`, the Kd was > 4 mM (inactive). With `CCn1cnc(C(=O)NC)c1C(=O)NC` the Kd was > 4 mM (inactive). For `Cc1c(N=CN2CCOCC2)c(=O)n(C)c(=O)n1C`, the Kd was > 4 mM (inactive). For `Cc1n[nH]c(C)c1-c1ccccc1C(=O)O`, the Kd was > 4 mM (inactive). In the case of `COc1ccccc1NC(=O)c1snnc1C`, the Kd is reported as > 4 mM (inactive). In the case of `CC(=O)NC(c1ccccc1)c1cccnc1` (stereo unspecified), the Kd is reported as > 4 mM (inactive). For `CN(C)c1nc(N)nc(-c2nc3ccccc3s2)n1`, the Kd was > 4 mM (inactive). With `O=C(c1ccc(F)cc1)N1CCN(c2ncccn2)CC1` the Kd was > 4 mM (inactive). `O=C(O)C1COc2ccccc2C1` (stereo unspecified) was tested, and the Kd was > 4 mM (inactive). In the case of `C/C1=C\CCC(=O)C2CC(C)(C)C2CC1` (stereo unspecified), the Kd is reported as > 4 mM (inactive). For `COC(=O)c1cc(C)on1`, the Kd was > 4 mM (inactive). For `O=c1[nH]cnc2c1nnn2Cc1ccccc1`, the Kd was > 4 mM (inactive). With `CCC1C(=O)OCC1Cc1cncn1C` (stereo unspecified) the Kd was > 4 mM (inactive). With `Cc1nc2nc(COc3ccccc3)nn2c(C)c1Cl` the Kd was > 4 mM (inactive). In the case of `CC(=O)Nc1ccncc1NC(C)=O`, the Kd is reported as > 4 mM (inactive). In the case of `NC(=O)Cn1cnc(-c2ccc(F)cc2)c1`, the Kd is reported as > 4 mM (inactive). In the case of `c1ccc(CN2CCC3(CC2)Nc2ccccc2CO3)cc1`, the Kd is reported as > 4 mM (inactive). In the case of `CC(=O)Nc1ccc(CN2CCOCC2)cc1`, the Kd is reported as > 4 mM (inactive). `COC(=O)Cc1cccc(OC)c1` was tested, and the Kd was > 4 mM (inactive). With `NC(=O)Cc1nc2ccccc2[nH]1` the Kd was > 4 mM (inactive). `O=S(=O)(Nc1cccc2cn[nH]c12)c1ccc(F)cc1` was tested, and the Kd was > 4 mM (inactive). In the case of `O=C1CCCC(=O)N1Cc1ccco1`, the Kd is reported as > 4 mM (inactive). `COc1ccc2c(c1)OC[C@@H](Cc1ccc(OC)c(OC)c1)[C@@H]2O` was tested, and the Kd was > 4 mM (inactive). With `CNCc1ccco1` the Kd was > 4 mM (inactive). With `Cc1n[nH]c(=S)n1-c1ccc(C(=O)O)cc1` the Kd was > 4 mM (inactive). In the case of `Cc1cc(=O)n(CCc2ccccc2)c(O)c1C#N`, the Kd is reported as > 4 mM (inactive). For `OC1CSc2ncnn2C1` (stereo unspecified), the Kd was > 4 mM (inactive). `CC(=O)Nc1ccc(S(N)(=O)=O)cc1` was tested, and the Kd was > 4 mM (inactive). `C=CCSc1[nH]c(=O)cc(C)c1C(N)=O` was tested, and the Kd was > 4 mM (inactive). With `CC(=O)Nc1ccc(S(=O)(=O)NCC2CCCO2)cc1` (stereo unspecified) the Kd was > 4 mM (inactive). `Cn1cc(Cl)c(C(=O)NC2CCCCCC2)n1` was tested, and the Kd was > 4 mM (inactive). With `NC(=O)C1CCN(c2ccc(Cl)nn2)CC1` the Kd was > 4 mM (inactive). With `CC(NC(=O)C1CCCCC1)C(=O)NC1=NCCS1` (stereo unspecified) the Kd was > 4 mM (inactive). `COc1ccc([C@H]2COc3c(ccc(O)c3OC)C2)c(OC)c1O` was tested, and the Kd was > 4 mM (inactive). With `O=C1NC(=O)/C(=C/c2ccc(O)cc2)N1` the Kd was > 4 mM (inactive). In the case of `COC(=O)NNc1ncnc(N)c1[N+](=O)[O-]`, the Kd is reported as > 4 mM (inactive). With `Cc1nc(NCc2ccco2)nc2c1C(=O)CC(C)C2` (stereo unspecified) the Kd was > 4 mM (inactive). `O=C(Nc1ccc2c(c1)OCO2)c1c(F)cccc1F` was tested, and the Kd was > 4 mM (inactive). For `Cc1cc2cc3c(C)cc(=O)oc3c(C)c2o1`, the Kd was > 4 mM (inactive). For `Cc1cc(C)n2nc(Cc3ccccc3)nc2n1`, the Kd was > 4 mM (inactive). `O=C(Nc1cnc2ccccn2c1=O)c1ccc(F)cc1` was tested, and the Kd was > 4 mM (inactive). `CC(C)=CC1C(C(=O)O)C1(C)C` (stereo unspecified) was tested, and the Kd was > 4 mM (inactive). `C=CCSCC=C` was tested, and the Kd was > 4 mM (inactive). For `COC(=O)c1c(OC)cc2c(c1C)Oc1c(Cl)c(OC(C)=O)c(Cl)c(C)c1C(=O)O2`, the Kd was > 4 mM (inactive). `Cc1nc2ccc(C(=O)N3CCSCC3)cc2s1` was tested, and the Kd was > 4 mM (inactive). With `O=C1NC(=S)N/C1=C\c1cccnc1` the Kd was > 4 mM (inactive). For `O=C1CCNc2cc3ccccc3cc21`, the Kd was > 4 mM (inactive). With `Cc1oc(-c2ccccc2)nc1CCO` the Kd was > 4 mM (inactive). `O=C(Nc1c[nH]c(=O)[nH]c1=O)c1ccccc1F` was tested, and the Kd was > 4 mM (inactive). For `COC(=O)Nc1c(C)n(C)n(-c2ccccc2)c1=O`, the Kd was > 4 mM (inactive). With `Cc1nc(-c2ccccc2)ncc1CO` the Kd was > 4 mM (inactive). For `Cc1cc(NC(=O)CSc2nncn2C)no1`, the Kd was > 4 mM (inactive). For `NC(=O)CN1CCCCCC1=O`, the Kd was > 4 mM (inactive). With `COc1ccccc1-c1n[nH]c(=O)o1` the Kd was > 4 mM (inactive). In the case of `COc1cccc(-c2csc(NC(C)=O)n2)c1`, the Kd is reported as > 4 mM (inactive). In the case of `Clc1ccccc1OCc1nc(-c2ccccn2)no1`, the Kd is reported as > 4 mM (inactive). For `COc1ccc(/C=C2/NC(=S)NC2=O)cc1`, the Kd was > 4 mM (inactive). For `NCc1ccccc1N1CCCCC1`, the Kd was > 4 mM (inactive). For `CC(O)c1nc2ccccc2[nH]1` (stereo unspecified), the Kd was > 4 mM (inactive). `CCOC(=O)C1=C(O)CCN(C)C1` was tested, and the Kd was > 4 mM (inactive). `O=c1[nH]c(N2CCOCC2)nc2ccccc12` was tested, and the Kd was > 4 mM (inactive). In the case of `Cc1nnsc1C(=O)Nc1ccccc1[N+](=O)[O-]`, the Kd is reported as > 4 mM (inactive). For `COc1ccc2c(CC(=O)O)coc2c1`, the Kd was > 4 mM (inactive). With `OCC1CN(Cc2ccccc2)CCO1` (stereo unspecified) the Kd was > 4 mM (inactive). In the case of `O=C(c1cccc(C(F)(F)F)c1)N1CCCC1`, the Kd is reported as > 4 mM (inactive). In the case of `CC(=O)NCS(=O)(=O)c1ccc(C)cc1`, the Kd is reported as > 4 mM (inactive). With `Cc1cc(C)cc(C(=O)n2cnnc2N)c1` the Kd was > 4 mM (inactive). In the case of `Nc1ncnc2c1ncn2[C@@H]1O[C@H](CO)[C@@H](O)[C@H]1O`, the Kd is reported as > 4 mM (inactive). With `O=C(Nn1cnnc1)c1cccc(C(F)(F)F)c1` the Kd was > 4 mM (inactive). With `COc1ccc(C(=O)O)cc1OC` the Kd was > 4 mM (inactive). `Nc1ccc(Cl)nn1` was tested, and the Kd was > 4 mM (inactive). `O=c1[nH]c(O)c(C=NC2CC2)c(=O)[nH]1` was tested, and the Kd was > 4 mM (inactive). `CS(=O)(=O)Nc1ccccc1C(=O)c1ccccc1` was tested, and the Kd was > 4 mM (inactive). `CC(=O)Nc1ccc(C(=O)n2nc(C)cc2C)cc1` was tested, and the Kd was > 4 mM (inactive). `COc1nc(C)ccc1-c1noc(-c2ccncc2)n1` was tested, and the Kd was > 4 mM (inactive). For `C/C(O)=c1/sc2cc(C)nc(=N)n2c1=O`, the Kd was > 4 mM (inactive). In the case of `O=C(O)c1cc(=O)[nH]c2ccccc12`, the Kd is reported as > 4 mM (inactive). In the case of `O=C1NC(=S)S/C1=C/c1ccncc1`, the Kd is reported as > 4 mM (inactive). With `Nc1oncc1-c1ccccn1` the Kd was > 4 mM (inactive). With `COc1ccc(C[C@H]2NC[C@H](O)[C@H]2OC(C)=O)cc1` the Kd was > 4 mM (inactive). With `CC1(C)Cn2c(nnc2-c2ccccc2)S1` the Kd was > 4 mM (inactive). With `Cc1ccc(NC(=O)/C=C2\SC(=O)NC2=O)cc1` the Kd was > 4 mM (inactive). With `CC(=O)Nc1ccc(C(=O)NC2=NCCS2)cc1` the Kd was > 4 mM (inactive). `NC(=O)c1cc(N)cc(C(N)=O)c1` was tested, and the Kd was > 4 mM (inactive). With `c1ccc(-c2nsc(N3CCCNCC3)n2)cc1` the Kd was > 4 mM (inactive). For `Cc1ccc(NC(=O)C2CCCNC2=O)nc1` (stereo unspecified), the Kd was > 4 mM (inactive). With `CC(C)(CO)NC(=O)c1ccccc1F` the Kd was > 4 mM (inactive). `Cc1c(C(=O)Nc2ccncc2)oc2c1C(=O)CC(C)(C)C2` was tested, and the Kd was > 4 mM (inactive). For `COc1cc(/C=C2/NC(=S)NC2=O)cc(Cl)c1O`, the Kd was > 4 mM (inactive). With `CSc1ccccc1NC(=O)c1ccoc1C` the Kd was > 4 mM (inactive). With `Cc1cc(C)nc(/N=C(\N)N2CCc3ccccc32)n1` the Kd was > 4 mM (inactive). In the case of `CN1CCN(c2ccc(CN)cc2)CC1`, the Kd is reported as > 4 mM (inactive). `Cc1ccc(C(=O)N2CCC(C(N)=O)CC2)cc1C` was tested, and the Kd was > 4 mM (inactive). In the case of `CCCCCC/C=C\CCCCCCCc1cccc(O)c1C(=O)O`, the Kd is reported as > 4 mM (inactive). In the case of `Cn1ncc2c(=O)n(CC(=O)c3ccccc3)cnc21`, the Kd is reported as > 4 mM (inactive). `Nc1ccc2c(c1)S(=O)(=O)C=C2` was tested, and the Kd was > 4 mM (inactive). With `C=C1C2CC[C@@]3(C)[C@H](c4ccoc4)OC(=O)C[C@]13O[C@H]1CC(O)C(C)(C)C(CC(=O)OC)[C@@]21C` (stereo partly specified) the Kd was > 4 mM (inactive). With `CN(C)C1CCS(=O)(=O)C1` (stereo unspecified) the Kd was > 4 mM (inactive). In the case of `O=C(Nc1ccon1)c1ccccc1Cl`, the Kd is reported as > 4 mM (inactive). With `COc1c(O)cc2c(-c3ccccc3)cc(=O)oc2c1OC` the Kd was > 4 mM (inactive). `CCOc1ccc(-c2c(=O)n(O)c3ccccc3[n+]2[O-])cc1` was tested, and the Kd was > 4 mM (inactive). `CCP(=O)(CC)c1cccc(C)c1` was tested, and the Kd was > 4 mM (inactive). For `Cc1onc(-c2ccc(F)cc2)c1C(=O)O`, the Kd was > 4 mM (inactive). In the case of `CCOC(=O)c1c(C)cc(O)c(C=O)c1O`, the Kd is reported as > 4 mM (inactive). For `Cc1ccc(N2NC(=O)CC2=O)cc1C`, the Kd was > 4 mM (inactive). In the case of `O=c1c[n+]([O-])c2ccccc2n1OCc1ccccn1`, the Kd is reported as > 4 mM (inactive). With `CC(=O)Oc1ccccc1N1C(=O)C=CC1=O` the Kd was > 4 mM (inactive). In the case of `CC1(C)CC2C1CCC1(C)OC1CCC2(C)O` (stereo unspecified), the Kd is reported as > 4 mM (inactive). In the case of `Cc1ccc(/C=N/n2c(C)nnc2C)cc1`, the Kd is reported as > 4 mM (inactive). `Cc1cc(N)n(C2CCOC(C)(C)C2)n1` (stereo unspecified) was tested, and the Kd was > 4 mM (inactive). With `CC1(C)C=Cc2c(cc3occ(-c4ccc5c(c4)OCO5)c(=O)c3c2O)O1` the Kd was > 4 mM (inactive). In the case of `COC(=O)c1scc(C)c1N`, the Kd is reported as > 4 mM (inactive). With `CCOC(=O)c1c(C)cc(O)cc1O` the Kd was > 4 mM (inactive). With `O=C(Nc1ccccn1)c1cc(-n2cnnc2)ccc1Cl` the Kd was > 4 mM (inactive). In the case of `CC1(C)Cc2nc3[nH]c(=S)[nH]c(=O)c3cc2CO1`, the Kd is reported as > 4 mM (inactive). For `Cc1ccccc1NC(=O)c1ccccc1`, the Kd was > 4 mM (inactive). With `Oc1cc2c(cc1O)C1c3ccc(O)c(O)c3OCC1(O)C2` (stereo unspecified) the Kd was > 4 mM (inactive). `Cc1ccc2nc(SCCC#N)nc(C)c2c1` was tested, and the Kd was > 4 mM (inactive). With `CC(=O)c1c(O)cc(O)cc1O` the Kd was > 4 mM (inactive). `Cc1cc(C(=O)Nn2cnnc2)cs1` was tested, and the Kd was > 4 mM (inactive).
